This is an account of results in patent US20170224833A1, “SELF-ASSEMBLING MOLECULES THAT ACCUMULATE IN ACIDIC TUMOR MICROENVIRONMENTS” (OHIO STATE INNOVATION FOUNDATION, priority 2014, published 2017).

Residues, ends and D or L forms follow the SMILES beside them. No end group written: not given here. *: point of attachment. Rubipy = bis(2,2'-bipyridine)-4'-methyl-4-carboxybipyridine ruthenium(II), conjugated to the lysine epsilon-amine; Palmitoyl = CCCCCCCCCCCCCCCC(=O)*

Holding throughout (assay type): physicochemical
A short description of series [1]: Circular dichroism (CD) spectroscopy of pH-triggered self-assembly transition in 150 mM NaCl, 2.2 mM CaCl2. To be noted: for CD Transition pH: 10 μM PA, 150 mM NaCl, 2.2 mM CaCl2, random coil to β-sheet. The protocol:
The target PA concentration (10 μM) was below the detectable limit of conventional techniques to determine the morphology such as cryoTEM and small-angle X-ray scattering. Consequently, circular dichroism (CD) spectroscopy was initially used to characterize the morphology of these PAs at various pH values. PA1 was the first molecule synthesized that underwent a self-assembly transition in the desired pH range of 6.6-7.4 at 10 μM PA concentration, in 150 mM NaCl and 2.2 mM CaCl2 (FIG. 2A) (Goldberger, J. E., et al. Angew. Chem. Int. Ed. 2011 50:6292-95). […] The transition pH from random coil to β-sheet occurred at a pH of 6.6. The transition pH was defined as the value at which the ellipticity at 205 nm rises to zero, followed by the appearance of a minimum at 218-220 nm.
Measurements were done on a Jasco-815 Circular Dichroism spectrometer using 1 cm path length quartz cuvettes. 10 μM solutions of peptide amphiphiles were prepared in 150 mM NaCl and 2.2 mM CaCl2 by dilution from a concentrated PA stock (0.5-1 mM, pH 9). Double de-ionized Milli-Q water was used for preparing all solutions. The solutions were then heated at 80° C. for 30 minutes in a water bath and gradually cooled to room temperature. An Accumet XL15 pH meter (Fisher Scientific) coupled with an Orion Ross Ultra semi-micro electrode (8103BNUWP, Thermo Scientific) was used to adjust the pH of the solution to the desired value followed by collection of the CD spectra Each trace shown was averaged over 3 accumulations and was baseline subtracted using aqueous solutions containing salts only. All spectra are cut-off below 205 nm due to absorption by NaCl and CaCl2.
Measurements were done on a Jasco-815 Circular Dichroism spectrometer using 0.5-1 cm path length quartz cuvettes. 500-10 μM of either pure PA or PA mixtures were prepared in 150 mM NaCl and 2.2 mM CaCl2 (and 1.8 mM 20 kDa PEG in select samples) by dilution from a concentrated PA stock (0.5-1 mM, pH 9). Double de-ionized Milli-Q water was used for preparing all solutions. The solutions were then heated at 80° C. for 30 minutes in a water bath and gradually cooled to room temperature. An Accumet XL15 pH meter (Fisher Scientific) coupled with an Orion Ross Ultra semi-micro electrode (8103BNUWP, Thermo Scientific) was used to adjust the pH of the solution to the desired value followed by collection of the CD spectra. Each trace shown was averaged over 3 accumulations and was baseline subtracted using aqueous solutions containing salts only. All spectra are cut-off below 200 nm due to absorption by NaCl and CaCl2. The same procedure was followed for the salt control samples with 3.0 and 4.0 mM CaCl2.
Self-assembly behavior is known to be extremely sensitive to minor changes in monomer structure and presence of impurities. […] CAC measurements via the pyrene 1:3 method (Das, D. et al. J. Colloid Interface Sci. 2008, 327:198) were used to ascertain the single molecule to spherical micelle transitions at varying pH values (FIGS. 24A-24C). CD Spectroscopy was used to determine the pH points at which different concentrations (10-500 μM) of the PA molecules transitioned from a random coil to a β-sheet secondary structure (FIGS. 25A-25C). It has been previously shown that the random coil and β-sheet structures correspond to spherical micellar/isolated molecule and nanofiber morphologies respectively (Ghosh, A. et al. J. Am. Chem. Soc. 2012, 134:3647). The CD transition point was defined to be the pH value at which the ellipticity at 200 nm rose from a negative value (random coil) to zero accompanied by the appearance of a minimum at 218-220 nm. The addition of PA66 shifted the CD transition pH to more basic values by ˜0.6 pH units. […] This ˜0.6 pH shift in CD transition pH to more basic values were also observed when 1.5% of PA67 was added to PA65. […]
(Circular dichroism is widely used to follow secondary structure.)

The nature of series [2]: pH titration of peptide amphiphiles (pKa). To be noted: 10 μM. Here is the method: The titration measurements were conducted on 10 μM peptide amphiphile solutions prepared in 150 mM NaCl and 2.2 mM CaCl2 using milli-Q water. The solution was heated at 80° C. for 30 minutes followed by slow cooling at room temperature. The pH of the solution was then adjusted to 4 using HCl. Finally, an Accumet XL15 pH meter (Fisher Scientific) coupled with an Orion Ross Ultra semi-micro electrode (8103BNUWP, Thermo Scientific) was used to track changes in pH of the solution as NaOH solution was added in small increments. pKa values were obtained from the second inflection points of the first derivative plots of the titration data. The first transition corresponds to neutralization of excess HCl. The calculated pKas reflect the average pKa for all four glutamic acids.

A short description of series [3]: Transmission electron microscopy (TEM) of self-assembled morphology. Here is the method: TEM images were obtained using solutions of either 10 μM or 0.5 mM peptide amphiphile concentration, as well as 150 mM NaCl and 2.2 mM CaCl2 in Milli-Q water. The solutions were first heated at 80° C. for 30 minutes in a water bath and then gradually cooled to room temperature. This was followed by pH adjustment using either HCl or NaOH. 5 μL of this solution was pipetted onto a Carbon Formvar grid (Electron Microscopy Sciences) and allowed to sit for 2 minutes before being wicked dry using filter paper. For the 10 μM experiments that were performed to determine the time dependence of nanofiber formation, solutions were dropcast onto the grid within three minutes of pH adjustment. The samples were then negatively stained using 1 wt % uranyl acetate and imaged under a FEI Tecnai G2 Bio TWIN TEM system, operating at 100 kV. All TEM experiments were performed in triplicate, using at least three different freshly prepared solutions and grids. […]
TEM images were obtained at various concentrations and pH values, with 150 mM NaCl and 2.2 mM CaCl2 in deionized water. Solutions were heated at 80° C. for 30 minutes and gradually cooled to room temperature. Following temperature equilibration, pH adjustment was achieved using HCl or NaOH. 5 μL of this solution was pipetted onto a Carbon Formvar grid (Electron Microscopy Sciences) and allowed to sit for 2 minutes before being wicked dry using filter paper strips. The samples were negatively stained with 1 wt % uranyl acetate and imaged under a FEI Tecnai G2 Bio TWIN TEM system operating at 100 kV.
Transmission electron microscopy was employed to confirm the self-assembled morphology at different pH values and concentrations. The sample to be tested was basified to a pH of 10, stirred at 90° C. in an oil bath for 30 minutes and cooled to room temperature. The pH was then adjusted with HCl and NaOH to set the peptide solution (in 150 mM NaCl and 2.2 mM CaCl2) to a pH of either 5 or 9. Once the desired pH was reached, 5 μL of the sample was placed and spread onto a Carbon Formvar grid (Electron Microscopy Sciences) and allowed to sit for one minute before being wicked dry with filter paper. A 1 wt % uranyl acetate solution was added and spread over the grid to negatively stain the sample, and was wicked dry immediately after application. The grid was then examined by a FEI Tecnai G2 Biotwin TEM at 100 keV. The diameters of each self-assembled morphology was determined via averaging at least 30 different objects.

The nature of series [4]: MRI r1 relaxivity measurement, 1.5 Tesla. Particulars: control standard, 1.5 T. The protocol: An MR relaxometry phantom was built by fixing 5 mm NMR sample tubes containing PA samples at a concentration of 500 μM and pH values 4 and 10 in a 600 ml beaker filled with deionized water. The samples also contained 150 mM NaCl and 2.2 mM CaCl2. The phantom was scanned on a 1.5 Tesla Signa Excite MRI scanner using an 8-channel phased-array head coil (GE Healthcare, Milwaukee, Wis., USA). R relaxometry data were acquired using an Inversion Recovery Fast Spin-Echo (IR-FSE) sequence with the following parameters: inversion time TI=50/100/200/400/600/800/1200/1600/3200 ms; repetition time TR=8000 ms; echo time TE=11 ms; echo train length=10; 90° flip angle; 100×100 mm^2 field-of-view (FOV); 0.5 mm in-plane resolution; 2 mm slice thickness; single coronal slice placed at the center of the phantom. Sample longitudinal relaxation rates (R1) were calculated by fitting the MR signal intensities observed at different TIs (S(TI)) to a three parameter model [Lu et al., MRM 2004]:
S(TI)=|S0×(1−C×exp(−TI×R1))|
Where S0 is the equilibrium signal, C is a constant accounting for imperfect inversion of magnetization. The r1 relaxivity was calculated as the slope in the linear relationship between sample concentrations and their R1 relaxation rates.

Series [5] is described as follows: Fluorescence anisotropy (FA) in mouse blood serum (pure or diluted). Particulars: only 1.5% PA67 isolated molecules in serum (control). The protocol:
Fluorescence and FA measurements were done using 20-100 μM of PA mixtures in 150 mM NaCl and 2.2 mM CaCl2 and various serum (MP Biomedicals) concentrations (0.75-100% v/v) diluted in the same salt buffer. PA samples in serum or MSA were not heated and cooled. All samples were then pH adjusted using HCl/NaOH solutions, transferred to a 96-well plate followed by collection of fluorescence emission from PA-(Rubipy)3 first parallel (Ipar) and then perpendicular (Iperp) to the excitation polarization using a hybrid reader fluorimeter (BioTek Synergy H4) at room temperature. The excitation wavelength used was 458 nm and the emission was monitored using a 640/20 nm filter. The same method was followed for control experiments involving serum background samples, dye conjugated MSA, only 1.5% PA-(Rubipy)3 in serum and 100 μM PA mixture in MSA and salt buffer. FA was calculated using the following equation: […]

[6] abbreviates: basic to acidic transition from small molecule to cylindrical nanofiber, simulated serum environment.
Setting [7] is: basic to acidic transition from spherical micelle to cylindrical fiber, simulated serum environment (150 mM NaC, 2.2 mM CaCl2).

With `CCCCCCCCCCCCCCCC(=O)N[C@@H](Cc1ccccc1)C(=O)N[C@@H](C)C(=O)N[C@@H](C)C(=O)N[C@@H](C)C(=O)N[C@@H](CCC(=O)O)C(=O)N[C@@H](CCC(=O)O)C(=O)N[C@@H](CCC(=O)O)C(=O)N[C@@H](CCC(=O)O)C(N)=O` [PA2] (Palmitoyl-FAAAEEEE-NH2), the “CD Transition pH” value in series [1] is recorded as 6.6. The “pH transition point at 10 μm PA” value in series [1] (setting [6]) was 6.6.
As for `CCCCCCCCCCCCCCCC(=O)N[C@@H](Cc1ccc(O)cc1)C(=O)N[C@@H](C)C(=O)N[C@@H](C)C(=O)N[C@@H](C)C(=O)N[C@@H](CCC(=O)O)C(=O)N[C@@H](CCC(=O)O)C(=O)N[C@@H](CCC(=O)O)C(=O)N[C@@H](CCC(=O)O)C(N)=O` [PA4] (Palmitoyl-YAAAEEEE-NH2), in series [1], the “CD Transition pH” value was found to be 6.0. In series [1] (setting [6]), the “pH transition point at 10 μm PA” value is listed as 6.0. Moreover, the “glutamic acids in the deprotonated form at the transition” value in series [2] came out at 91%.
As to “pentadecyl-YYAAEEEEK(DO3A:Gd)-NH2 [PA75]”, the “micelle to nanofiber transition pH, more basic than PA74” value in series [1] (all concentrations observed) is 0.15-0.63 pH units. The nanofiber diameter in series [3] (FIG. 50: pH 5, PA74 500 μM, PA75 100 μM) came out at 8.1±1.3 nm. Moreover, the “morphology by TEM” value in series [3] (pH 5, PA74 500 μM, PA75 100 μM) is on record as “nanofiber morphology”; in series [3] (pH 9, PA74 500 μM, PA75 100 μM), “spherical micelle morphology”.
For “Palmitoyl-IAAAEEEEK(DO3A:Tb)-NH2 (Palmitoyl-IAAAEEEEK(DO3A)-NH2; also: DO3A chelates Tb) [PA7]”, the “pH transition point at 10 μm PA” value in series [1] (setting [7]) was 5.7.
Turning to “Palmitoyl-VAAAEEEEK(DO3A:Gd)-NH2 (Palmitoyl-VAAAEEEEK(DO3A)-NH2; also: DO3A chelates Gd) [PA6]”, the “pH transition point at 10 μm PA” value in series [1] (setting [7]) is reported as 5.3. In addition, the “nanofiber to micelle transition pH, lower than PA5” value in series [1] (for each concentration (10 μM, 500 μM)) was found to be 0.4 units.
With `CNC[C@H](O)[C@@H](O)[C@H](O)[C@H](O)CO.CNC[C@H](O)[C@@H](O)[C@H](O)[C@H](O)CO.O=C([O-])CN(CCN(CC(=O)[O-])CC(=O)O)CCN(CC(=O)[O-])CC(=O)O.[Gd+3]` [Magnevist, reference compound], in series [4], the “relaxivity of water protons” value was 4.5 mM⁻¹ s⁻¹.
As for “Palmitoyl-YAAAEEEEK(DO3A:Gd)-NH2 (Palmitoyl-YAAAEEEEK(DO3A)-NH2; also: DO3A chelates Gd) [PA9]”, in series [1] (setting [7]), the “pH transition point at 10 μm PA” value is reported as 5.1.
With Palmitoyl-VAAAEEKE-NH2 [PA11], the “pH transition point at 10 μm PA” value in series [1] (setting [6]) was 6.2.
As to “Palmitoyl-MAAAEEEEK-Rubipy (Palmitoyl-MAAAEEEEK(Rubipy); not fully specified (C-terminus); printed as Palmitoyl-MAAAEEEEK-Rubipy) [PA67]”, the “FA, constant independent of pH” value in series [5] was about 0.05.
With palmitoyl-YYAAEEEEK(DO3A:Gd)-NH2 [PA73], the CD pattern result in series [1] (10 μM, pH 5-11) was “β-sheet pattern”. Further, the nanofiber diameter in series [3] (500 μM, pH 5) turned out to be 8.5±1.0 nm; in series [3] (500 μM, pH 9) it was 8.6±0.9 nm.
In the case of “Palmitoyl-IAAAEEEEK(DO3A:Lu)-NH2 (Palmitoyl-IAAAEEEEK(DO3A)-NH2; also: DO3A chelates Lu) [PA8]”, the “pH transition point at 10 μm PA” value in series [1] (setting [7]) was 5.7.
